Experimental data published in BindingDB's records for doi:10.1021/jm00171a016 (University of Oregon, 1990).

assay: In vitro inhibitory activity against [3H]DTG binding to Sigma opioid receptor in guinea pig brain membrane homogenates

Row | IC50 | SMILES
1 | 6 nM | Cc1ccccc1NC(N)=NC1CC2CCC1C2 (stereo not given)
2 | 6 nM | NC(=Nc1ccccc1I)NC12CC3CC(CC(C3)C1)C2
3 | 12 nM | Cc1ccccc1N=C(N)NC1CCCCC1
4 | 118 nM | Cc1cc([N+](=O)[O-])ccc1NC(N)=Nc1cccc(O)c1
5 | 90 nM | N=C(NCc1ccccc1)NCc1ccccc1
6 | 4 nM | NC(=NC1CC2CCC1C2)Nc1ccccc1I (stereo not given)
7 | 760 nM | Cc1cc([N+](=O)[O-])ccc1/N=C(/N)Nc1ccc([N+](=O)[O-])cc1C
8 | 540 nM | NC(=Nc1ccc(Br)cc1)Nc1ccc(Br)cc1
9 | 37 nM | Cc1cc([N+](=O)[O-])ccc1N=C(N)Nc1ccccc1C
10 | 207 nM | Cc1ccccc1N=C(N)Nc1cccc(O)c1
